Results on one compound are retold here after patent US6492427B2, “Methods for treating multiple sclerosis” (priority 1998, dated 2002).

For one data set, the system named is O-2As. Briefly: Methylene blue counts of individual cell types: O-2As. Type of data set: cell-based, rat. As to conditions: BM-D9, 24 h. The protocol: (§1) Methylene blue (3,7-bis (dimethylamino)-phenothiazin-5-ium chloride), a ribonucleic acid (RNA) binding agent commonly used as an alternative nucleic acid stain, can also be used as a biological staining agent to stain cells in order to observe their morphological features. At 24 h, cells were fixed in 2% paraformaldehyde for 15 min at room temperature. Briefly, cells were washed twice with PBS and 100 μl of 1% methylene blue (Mallinckrodt Chemical Co., MO, USA) solution containing 1% AgNO3 was added for 10 min to the wells containing coverslips. Subsequently, the coverslips were washed with two changes of distilled water and absolute ethanol, cleared with xylene and mounted on slides with permount.
(§2) Cell counts were performed for 25 randomly chosen 100 power fields on each coverslip. Two randomly generated coordinates drawn from a uniform distribution of random numbers specified the center of each field. The random numbers were generated on a computer by using Microcal Origin 4.0 program. […] Three coverslips was counted for each treatment condition. In subsequent experiments, different cell types (for example, O-2A progenitors, PROLs, OLs and astrocytes) were morphologically identified on each field and were counted separately for experimental series-I and II. […]

Another data set relates to OLs. In words: Methylene blue counts of individual cell types: OLs. Type of data set: cell-based, rat. To be noted: BM-D9, 24 h. The procedure:
as §1, §2

Data set [1] deals with oligodendroglial cells. Briefly: DNA extraction and electrophoresis (DNA ladders). Format: cell-based, rat. To be noted: BM + 10^−9 M, 18 h after washing on 16 DIV.
For data set [2] the following is noted: pH about 3-5 vs pH about 7; cited from earlier work.
The next data set deals with PROLs. Briefly: Methylene blue counts of individual cell types: PROLs. As to conditions: BM-D9, 24 h. Format: cell-based, rat. The protocol:
as §1, §2

For data set [3], the system named is MBP, PLP, GC and CNPase-I. In words: Western blot of PROL and OL marker proteins. To be noted: BM + 10^−9 M, 18 h. Type of data set: cell-based, rat. (A western blot detects proteins with antibodies after separation by electrophoresis.)
Data set [4] relates to oligodendroglial cells. Briefly: Nuclear integrity assay: counts of intact nuclei (Zap-oglobin lysis) after insulin and IGF-I withdrawal. To be noted: for increase in number of intact nuclei compared to BM: BM + 10^−9 M (BM-D9) vs BM; for number of intact nuclei compared to IM: IM + 10^−9 M (IM-D9). Type of data set: cell-based, rat. The procedure:
In order to examine insulin and IGF-I dependent survival of the cells of the oligodendroglial lineage, cells were trophically deprived for a period of 24 hours at 16 DIV.
Cells were trophically withdrawn by replacing the media with a serum free, chemically-defined base media (BM) lacking insulin and IGF-I (Bottenstein et al., 1988). The base media consisited of DMEM supplemented with penicillin (50 IU/ml); streptomycin (50 μg/ml); 1 mM sodium pyruvate; 50 μg/ml transferrin; 0.005 μg/ml sodium selenite; 16 μg/ml putrescine; 0.006 μg/ml progesterone and 0.1 mg/ml bovine serum albumin. All the cells were washed with BM twice before exposing them to individual treatment conditions. Control cells were washed and placed in BM supplemented with 2.5 ng/ml IGF-I and 5 μg/ml insulin to form the insulin media (IM).
Cell survival in the cultures was assessed according to the method of (Soto and Sonnenschein, 1985). After washing and treatment in BM, BM-D9, IM and IM-D9 for 24 h, cells were harvested, centrifuged at 500 rpm for 5 min and the supernatant removed. Pelleted cells were then lysed with 200 μl of 10% Zap-oglobin (Coulter Electronics, FL, USA). The lysing agent is a detergent containing solution that lyses the plasma membrane but leaves the nuclei intact. The lysed solution was collected and vortexed. A small volume (10 μl) of the solution was removed and intact nuclei were counted using a haemocytometer. To be counted, nuclei had to show a completely intact smooth outer border. Counts of intact nuclei were pooled for three or four experiments (a total of 15-20 wells were used for each treatment condition). each treatment condition).
OLs at 16 DIV were exposed to the different drug treatment conditions for 24 h, following which, the nuclear integrity assay was performed. On the day of the treatment, the cells growing in Nunc 24 well plates were washed twice with base media. Each treatment well received 50 μl of the appropriate drug solution and the total volume in the well was made up to 500 μl with either BM or IM.
Nuclear counts were obtained from quadruplicate wells per treatment condition and the experiment was repeated twice. OLs were exposed to the following treatment conditions: 1) IM, 2) BM, 3) BM-D9, 4) (−)-Desmethyldeprenyl (BM-Ds9), 5) IM-D9 and 6) IM +10^−9 M (−)-Desmethyldeprenyl (IM-Ds9).
The treatment conditions with the three general cytochrome P450 blockers were: 1) BM+Proadifen (2.5, 10, 25 μM), 2) BM-D9+Proadifen (2.5, 10, 25 μM), 3) BM-Ds9+Proadifen (2.5, 10, 25 μM), 4) BM+Metapyrone (50 μM), 5) BM-D9+Metapyrone (50 μM), 6) BM-Ds9+Metapyrone (50 μM), 7) BM+Piperonyl butoxide (100 μM), 5) BM-D9+Piperonyl butoxide (100 μM), 6) BM-Ds9+Piperonyl butoxide (100 μM).
OLs at 16 DIV were washed twice with base media and exposed either to actinomycin, a transcriptional blocker or cycloheximide, a translational blocker for 24 h. […] Actinomycin and cycloheximide were either used with base media alone or in combination with 10^−9 M (−)-desmethyldeprenyl. Each treatment well received 50 μl of the drug solution and the total volume of the well was made up to 500 μl with base media.
Counts of intact nuclei, obtained from quadruplicate wells per treatment condition were used to quantitate the effects of the transcriptional and translational blockers. Each experiment was repeated twice for experimental density series-II.

With `C#CCN(C)[C@H](C)Cc1ccccc1` [(−)-deprenyl, R-(−)-N,α-Dimethyl-N-2-propynyl phenethylamine], the “O-2A cell numbers compared to those in BM” value with O-2As (experimental series II) amounted to 176%; in the data set on O-2As (experimental series-I), 244%. In addition, the results for the “OL cell numbers compared to those in BM” value in the data set on OLs (experimental series II) and in the data set on OLs (experimental series-I) were 291% and 565.0%, respectively. For the same compound, the “DNA laddering on electrophoresis gels” value in the data set with oligodendroglial cells [1] is “did not show detectable laddering”. For the same compound, the “stability depending on pH of the medium” value in data set [2] is “more stable at a pH in the range of about 3-5 than at a pH of about 7”. In addition, the “PROL cell numbers compared to those in BM” value in the data set on PROLs (experimental series II) amounted to 275%; in the data set with PROLs (experimental series-I), 739.2%. Moreover, in data set [3], the “band densities for MBP, CNP-ase I and PLP compared to IM” value was “exceed those for IM”. For the same compound, the “immunodensity of marker proteins (MBP, PLP, GC, CNPase-I) compared to BM” value in data set [3] is reported as “marked increase in immunodensity compared to BM”. The “increase in number of intact nuclei compared to BM” value in the data set with oligodendroglial cells [4] (24 h, experimental series-I) is recorded as 217%; with oligodendroglial cells [4] (24 h, experimental series-II (15.8×10^3 cell/mm^2)) it was 164%. Moreover, the “numbers of intact nuclei, % of those in IM” value in the data set with oligodendroglial cells [4] (BM + 10^−9 M (BM-D9), 24 h, experimental series-I (5.3×10^3 cell/mm^2)) is 119%. Also, the “increase in counts of intact nuclei compared to those for BM” value in the data set on oligodendroglial cells [4] (BM + 10^−9 M, 24 h, metabolite experiments (FIG. 11)) turned out to be 194%. The “concentration-survival relationship, numbers of intact nuclei” value with oligodendroglial cells [4] (BM with 10^−5, 10^−7 and 10^−9 M, 24 h) is reported as “graded increase in the numbers of intact nuclei with the greatest increase for 10^−9 M”. Further, the “number of intact nuclei compared to IM” value in the data set on oligodendroglial cells [4] (24 h, experimental series-I) worked out at 135.6%; in the data set with oligodendroglial cells [4] (24 h, experimental series-II) it was 102.4%. For the same compound, the “Survival (24 h)” value in the data set with oligodendroglial cells [4] (OL cell survival, relative to control (IM)) is reported as “++++”.
